In patent publication US8765755B2, “N-containing heterocyclic compounds” (YM Biosciences Australia Pty Ltd, priority 2007, dated 2014) one finds IC50 data, which are given here for 14 molecules.

A value given as a limit tells only on which side of the number the result lay.

Assay [1] deals with T1, human JAK1 (Homo sapiens, UniProt P23458).
T1 construct: The kinase domain of human JAK1 was amplified; GST (N); made in house; host or cells: Sf9 (Spodoptera frugiperda) insect cells, baculovirus
The experiment in a line: JAK1 kinase enzyme assay (Alphascreen). As to conditions: 80 or 625 um ATP. The assay is classed as biochemical. The protocol: For screening purposes, compounds (in 100% DMSO) were warmed at 37 degrees for at least 20 minutes before use. A […] stock was initially made in assay buffer, where the final concentration of DMSO was 0.3%. The stocks were then diluted in 384 well Optiplates (Packard) where the final concentration of the compound was 5 μM.
The kinase domain of human JAK1 was amplified from U937mRNA using the polymerase chain reaction with the following primers: […]
The JAK1 PCR products were cloned into the pDest20 destination vector (Gibco). The JAK1 plasmid was then transformed into competent DH10Bac cells (Gibco), and the recombinant baculovirus was prepared via Sf9 insect cell transfection.
Baculovirus preparations from each of the JAK family members were infected into one litre of Sf9 (Spodoptera frugiperda) cells (Invitrogen) grown in SF900II serum free medium (Invitrogen) to a cell density of approximately 2×10^6 cells/ml. Cells were infected with virus at a cell culture to virus stock ratio of 20:1. Cells were harvested and lysed 48 hours post infection. The GST-tagged JAK kinase domains were purified by affinity chromatography on a GSH agarose column (Scientifix).
Kinase assays were performed in 384 well Optiplates (Packard) using an Alphascreen Protein Tyrosine KinaseP100 detection kit The compounds were pre-incubated with affinity purified PTK domain in the presence of phosphotyrosine assay buffer (10 mM HEPES, pH 7.5, 100 mM MgCl2, 25 mM NaCl, 200 mM sodium vanadate and 0.1% Tween 20) for 20 minutes. The compounds were then incubated with substrate in the presence of either 80 or 625 um ATP for 60 or 90 minutes. The substrate used was either susbtrate-1 with the sequence biotin-EGPWLEEEEEAYGWMDF-NH2 [SEQ. ID. NO. 13] (final concentration 111 μM) or susbtrate-2 substrate with the sequence biotin-EQEDEPEGDYFEWLEPE (final concentration 133 μM). Alphascreen phosphotyrosine acceptor beads followed by streptavidin donor beads at a concentration of 1/100 in stop buffer were added to each well under subdued light and incubated for 2-3 hours. The Alphascreen plates were read on a Packard Fusion Alpha instrument.

Assay [2] addresses T2, human JAK2 (Homo sapiens, UniProt O60674).
T2 construct: The kinase domain of human JAK2 was amplified; GST (N); made in house; host or cells: Sf9 (Spodoptera frugiperda) insect cells, baculovirus
The experiment in a line: JAK2 kinase enzyme assay (Alphascreen). In kind it is biochemical. As to conditions: 80 or 625 um ATP. The method in brief: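 Compounds at 5 μM final were pre-incubated 20 min with Sf9-expressed GST-JAK2 kinase domain in HEPES pH 7.5 phosphotyrosine buffer, then incubated 60 or 90 min with 80 or 625 um ATP. Substrate was biotinylated peptide 1 (111 μM final) or peptide 2 (133 μM final). Phosphotyrosine was detected by AlphaScreen acceptor/streptavidin donor beads after 2–3 h.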
For orientation: Alpha assays give light when donor and acceptor beads are brought close together.

Assay [3] has as its target T3, human JAK3 (Homo sapiens, UniProt P52333).
T3 construct: The kinase domain of human JAK3 was amplified; GST (N); made in house; host or cells: Sf9 (Spodoptera frugiperda) insect cells, baculovirus
The experiment in a line: JAK3 kinase enzyme assay (Alphascreen). In kind it is biochemical. As to conditions: 80 or 625 um ATP. The procedure, abridged:
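Sf9-expressed GST-tagged human JAK3 kinase domain was pre-incubated 20 min with compound at 5 μM final in HEPES pH 7.5 buffer. Then 60 or 90 min reaction with 80 or 625 μM ATP and biotinylated peptide substrate at 111 or 133 μM. AlphaScreen phosphotyrosine acceptor and streptavidin donor beads, 2–3 h.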

Assay [4] relates to BafT_J2. The experiment in a line: Cellular screening, BaF3 TEL:JAK2 cells (Alamar Blue). In kind it is cell-based. As to conditions: Mus musculus, 40 hr incubation. The method in brief: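 BaF3 cells expressing a TEL–JAK2 kinase-domain fusion, growth-factor independent, were exposed to compounds for 40 hr at 37° C, 5% CO2. Screening concentration was 20 μM in the dilution plate, added as 10× final. Viability read with Alamar Blue after a further 4-6 h, at 544 nm.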
(The colour change of resazurin is a common sign of viable cells or microbes.)

In assay [5] the test system is BAF3wt. The experiment in a line: Cellular screening, BaF3 wild-type cells (Alamar Blue). The assay is classed as cell-based. As to conditions: Mus musculus, 40 hr incubation. The method in brief:
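BaF3 wild-type cells grown in DMEM with 10% FCS and 10% WEHI 3B conditioned medium, incubated with compound for 40 h at 37 °C, 5% CO2. Viability read by Alamar Blue after a further 4-6 h, at 544 nm; screening concentration 20 μM in dilution plate.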

The test system of assay [6] is BafT_J3. The experiment in a line: Cellular screening, BaF3 TEL:JAK3 cells (Alamar Blue). In kind it is cell-based. As to conditions: Mus musculus, 40 hr incubation. The procedure, abridged: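 Growth-factor-independent BaF3 tet-off cells express a TEL(nt 1–487)/JAK3 kinase-domain fusion and are grown without WEHI 3B medium. Compound plates were prepared at 20 μM and added as 10× final. After 40 h at 37 °C, 5% CO2, Alamar Blue was added for 4–6 h and read at 544 nm.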

For assay [7], the system named is CTLL2. The experiment in a line: Cellular screening, CTLL2 cells (Alamar Blue). The assay is classed as cell-based. As to conditions: Mus musculus, CTLL-2, 40 hr incubation. The procedure, abridged: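 CTLL2 cells in late log phase were incubated with compounds, from screening plates at 20 μM, for 40 hr at 37° C, 5% CO2. Viability was read by Alamar Blue, added for a further 4-6 hours, with the read at 544 nm.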

T1 sequence (P23458 875-1153 limits assumed): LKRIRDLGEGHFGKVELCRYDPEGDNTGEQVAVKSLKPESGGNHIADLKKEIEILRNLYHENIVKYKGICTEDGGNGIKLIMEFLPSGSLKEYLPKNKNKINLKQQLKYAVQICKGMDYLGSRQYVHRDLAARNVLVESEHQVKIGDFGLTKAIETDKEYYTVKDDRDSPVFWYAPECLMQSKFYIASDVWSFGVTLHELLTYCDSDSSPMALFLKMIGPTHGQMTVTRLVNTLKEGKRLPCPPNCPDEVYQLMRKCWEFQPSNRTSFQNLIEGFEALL
T3 sequence (P52333 822-1111 limits assumed): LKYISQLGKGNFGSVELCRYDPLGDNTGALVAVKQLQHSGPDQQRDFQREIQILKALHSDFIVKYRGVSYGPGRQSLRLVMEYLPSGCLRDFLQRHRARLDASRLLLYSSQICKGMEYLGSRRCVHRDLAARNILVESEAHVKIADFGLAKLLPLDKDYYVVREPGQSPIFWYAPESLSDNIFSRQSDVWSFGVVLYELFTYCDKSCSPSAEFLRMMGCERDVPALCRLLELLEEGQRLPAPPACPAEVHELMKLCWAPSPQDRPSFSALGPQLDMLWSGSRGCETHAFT
T2 sequence (O60674 849-1124 limits assumed): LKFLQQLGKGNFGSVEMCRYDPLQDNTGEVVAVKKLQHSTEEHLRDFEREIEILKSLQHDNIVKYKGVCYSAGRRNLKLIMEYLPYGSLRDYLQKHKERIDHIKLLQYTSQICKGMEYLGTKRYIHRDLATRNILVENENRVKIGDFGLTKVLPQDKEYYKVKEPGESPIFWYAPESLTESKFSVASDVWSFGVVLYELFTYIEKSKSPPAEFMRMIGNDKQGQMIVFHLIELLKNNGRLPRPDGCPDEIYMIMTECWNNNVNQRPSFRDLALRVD

Usually IC50 stands for the concentration needed to halve the response being measured. For `NS(=O)(=O)c1ccc(-c2csc3cnc(Nc4ccc(N5CCOCC5)cc4)nc23)cc1` [Compound 11, 4-(2-(4-morpholinophenylamino)thieno[3,2-d]pyrimidin-7-yl)benzenesulfonamide], the IC50 in assay [1] is less than 0.1 µM; in assay [2], less than 0.1 µM; in assay [3], less than 0.1 µM; in assay [4], less than 1 µM; in assay [5] it was less than 5 µM; in assay [6], less than 5 µM. The molecule also displayed an IC50 in assay [7] of less than 1 µM.

On to `CCNC(=O)Nc1ccc(-c2csc3cnc(Nc4ccc(N5CCOCC5)cc4)nc23)cc1OC` [Compound 13, 1-ethyl-3-(2-methoxy-4-(2-(4-morpholinophenylamino)thieno[3,2-d]pyrimidin-7-yl)phenyl)urea], for which the IC50 in assay [1] is less than 0.5 µM; in assay [2], less than 0.1 µM; in assay [3], less than 0.1 µM; in assay [4], less than 1 µM; in assay [5], less than 1 µM; in assay [6], less than 5 µM. The IC50 in assay [7] was less than 5 µM.

In the case of `CS(=O)(=O)Nc1ccc(-c2csc3cnc(Nc4ccc(N5CCOCC5)cc4)nc23)cc1` [Compound 14, N-(4-(2-(4-morpholinophenylamino)thieno[3,2-d]pyrimidin-7-yl)phenyl)methanesulfonamide], the IC50 in assay [1] was less than 0.1 µM; in assay [2], less than 0.1 µM; in assay [3] it was less than 0.1 µM; in assay [4], less than 1 µM; in assay [5], less than 1 µM; in assay [6], less than 1 µM. Further, the IC50 in assay [7] is less than 1 µM.

In the case of `COc1cc(-c2csc3cnc(Nc4ccc(N5CCOCC5)cc4)nc23)ccc1O` [Compound 15, 2-methoxy-4-(2-(4-morpholinophenylamino)thieno[3,2-d]pyrimidin-7-yl)phenol], the half-inhibitory concentration (IC50) in assay [1] is less than 0.1 µM; in assay [2], less than 0.1 µM; in assay [3] it was less than 0.1 µM; in assay [4], less than 1 µM; in assay [5] (given as number), greater than 20 µM; in assay [6] (given as number), greater than 20 µM. The same molecule returned a half-inhibitory concentration (IC50) in assay [7] (given as number) greater than 20 µM.

For `N#CCC(=O)Nc1cccc(-c2csc3cnc(Nc4ccc(N5CCOCC5)cc4)nc23)c1` [Compound 16, 2-cyano-N-(3-(2-(4-morpholinophenylamino)thieno[3,2-d]pyrimidin-7-yl)phenyl)acetamide], the IC50 is less than 0.1 µM in assay [1]; less than 0.1 µM in assay [2]; less than 0.1 µM in assay [3]; less than 1 µM in assay [4]; less than 1 µM in assay [5]; less than 1 µM in assay [6]. Also, the IC50 in assay [7] is less than 1 µM.

Take `CS(=O)(=O)Nc1cccc(-c2csc3cnc(Nc4ccc(N5CCOCC5)cc4)nc23)c1` [Compound 18, N-(3-(2-(4-morpholinophenylamino)thieno[3,2-d]pyrimidin-7-yl)phenyl)methanesulfonamide]: the IC50 in assay [1] is less than 0.1 µM; in assay [2] it was less than 0.1 µM; in assay [3], less than 0.1 µM; in assay [4], less than 1 µM; in assay [5] it was less than 1 µM; in assay [6], less than 1 µM. This molecule returned an IC50 in assay [7] of less than 1 µM.

As for `CS(=O)(=O)NCc1cccc(-c2csc3cnc(Nc4ccc(OCCN5CCCC5)cc4)nc23)c1` [Compound 91], the IC50 in assay [2] was less than 0.1 µM; in assay [3], less than 0.1 µM; in assay [4], less than 1 µM; in assay [5], less than 1 µM; in assay [6], less than 1 µM; in assay [7], less than 1 µM.

Take `CC(C)(C)OC(=O)NCc1cccc(-c2csc3cnc(Nc4ccc(CN5CCOCC5)cc4)nc23)c1` [Compound 92]: the IC50 in assay [2] was less than 0.1 µM; in assay [3] it was less than 0.5 µM; in assay [4] it was less than 5 µM; in assay [5], less than 1 µM; in assay [6], less than 5 µM; in assay [7] it was less than 1 µM.

For the molecule `c1cc(-c2csc3cnc(Nc4ccc(CN5CCOCC5)cc4)nc23)cc(N2CCNCC2)c1` [Compound 93, N-(4-(morpholinomethyl)phenyl)-7-(3-(piperazin-1-yl)phenyl)thieno[3,2-d]pyrimidin-2-amine], the IC50 was less than 0.1 µM in assay [2]; less than 0.1 µM in assay [3]; less than 1 µM in assay [4]; less than 1 µM in assay [5]; less than 1 µM in assay [6]; less than 1 µM in assay [7].

Regarding `COc1cc(Nc2ncc3scc(-c4ccc(NCCN5CCOCC5)nc4)c3n2)cc(OC)c1OC` [Compound 94, 7-(6-(2-morpholinoethylamino)pyridin-3-yl)-N-(3,4,5-trimethoxyphenyl)thieno[3,2-d]pyrimidin-2-amine], the IC50 in assay [2] is less than 0.1 µM; in assay [3], less than 0.5 µM; in assay [4], less than 1 µM; in assay [5], less than 1 µM; in assay [6], less than 1 µM; in assay [7], less than 1 µM.

In the case of `CCc1ccccc1-c1csc2cnc(Nc3ccc(OCCN4CCCC4)cc3)nc12` [Compound 95, 7-(2-ethylphenyl)-N-(4-(2-(pyrrolidin-1-yl)ethoxy)phenyl)thieno[3,2-d]pyrimidin-2-amine], the IC50 is less than 0.1 µM in assay [2]; less than 0.1 µM in assay [3]; less than 1 µM in assay [4]; less than 1 µM in assay [5]; less than 1 µM in assay [6]; less than 1 µM in assay [7].

Regarding `CC(C)c1ccccc1-c1csc2cnc(Nc3ccc(OCCN4CCCC4)cc3)nc12` [Compound 96], the half-maximal inhibitory concentration (IC50) is less than 0.1 µM in assay [2]; less than 0.1 µM in assay [3]; less than 1 µM in assay [4]; less than 1 µM in assay [5]; less than 1 µM in assay [6]; less than 1 µM in assay [7].

With `NCc1ccc(-c2csc3cnc(Nc4ccc(CN5CCOCC5)cc4)nc23)cc1` [Compound 97, 7-(4-(aminomethyl)phenyl)-N-(4-(morpholinomethyl)phenyl)thieno[3,2-d]pyrimidin-2-amine], the concentration for half-maximal inhibition (IC50) in assay [2] is less than 0.1 µM; in assay [3], less than 0.1 µM; in assay [4], less than 1 µM; in assay [5] it was less than 1 µM; in assay [6] it was less than 1 µM; in assay [7], less than 1 µM.

On to `CCN1CCC(Oc2ccc(Nc3ncc4scc(-c5cn[nH]c5)c4n3)cc2)CC1` [Compound 98, N-(4-(1-ethylpiperidin-4-yloxy)phenyl)-7-(1H-pyrazol-4-yl)thieno[3,2-d]pyrimidin-2-amine], for which the concentration for half-maximal inhibition (IC50) was less than 0.1 µM in assay [2]; less than 0.1 µM in assay [3]; less than 1 µM in assay [4]; less than 1 µM in assay [5]; less than 1 µM in assay [6]; less than 1 µM in assay [7].
